Read-outs that look alike come from different tables or passages of the source.
Legend:
HSV-1 ICP6 = assay: Expression of viral gene ICP6 after HSV-1 infection of L929 cells (real-time PCR); format: cell-based, herpes simplex virus (HSV)-1; conditions: culture supernatants 5 h post HSV-1 infection
Protocol: Total RNA was extracted using TRIzol Reagent (Invitrogen) from cell pellets. cDNA was synthesized using a Revert Aid First Strand cDNA kit (Thermo Fisher Scientifc). Real-time PCR was performed using corresponding primers and Power SYBR® Green PCR Master Mix (Invitrogen). The data were normalized to GAPDH. The primer sequences are as follows: ICP6 Forward: […] , Reverse: GGT […]; TNFα Forward: […] , Reverse: […]; CCL3 Forward: […] , Reverse: […]; CXCL1 Forward: GCACCC […] , Reverse: […] CAGA; GAPDH Forward: […] , Reverse: […] .
(§1) Cell viability was determined by measuring ATP levels. L, LPS; Z, z-VAD. […] After 5 h, cell viability was determined by measuring ATP levels and ICP6 mRNA expression was detected using viral genome extracted from cell culture supernatant. *P < 0.05. **P < 0.01. ***P < 0.001.

HT-29 cells = assay: TNF-induced necroptosis in HT-29 cells (cell viability, ATP levels); format: cell-based, human; conditions: 2 h pretreatment, then TNF-α 40 ng/ml, Smac mimetic 100 nM, z-VAD 20 μM for 48 h, focused library, compared to GSK’872
Protocol: (§2) Cells were seeded in 96-well plates and then treated as indicated. The cell viability was determined by assessment of ATP levels using the CellTiter-Glo Luminescent Cell Viability Assay kit following the manufacture’s instructions (Promega). Luminescence was calculated with SpectraMax i3x (Molecular Devices).
To discover novel inhibitors of necroptosis, we designed and synthesized a focused library with novel structures based on the GSK’872 scaffold.
Cell viability was assessed by measuring ATP levels. […] T, TNF-α; S, Smac mimetic; Z, z-VAD.

human RIPK3 = target: T1, human RIPK3 (Homo sapiens, UniProt Q9Y572); assay: In vitro kinase activity assay (ADP-Glo), RIPK3; format: biochemical; conditions: ATP 50 μM, MBP 20 μM; compared to GSK’872
T1 construct: purchased SignalChem
Protocol: (§3) The recombinant human RIPK1 or RIPK3 protein was incubated with the control DMSO or the indicated compound for around 15 min in the assay buffer (25 mM HEPES PH7.2, 12.5 mM MnCl2, 5 mM EGTA, 20 mM MgCl2, 12.5 mM β-glycerol phosphate, 2 mM EDTA, and 2 mM DTT). ATP (50 μM) and the substrate MBP (20 μM) were then added to the reaction at room temperature for 2 h. The kinase activity was calculated by the measuring the luminescence after the addition of the ADP-Glo Kinase Assay kit according to the manufacture’s instructions (Promega).
(§4) In vitro kinase activity assays using recombinant RIPK3 and RIPK1 were performed as described in the section “Materials and Methods.” Data represent mean value ± standard deviation. […] NIH3T3-RIPK3 cells were pretreated with indicated compounds for 2 h and subsequently treated with AP20187 (60 nM) for 24 h. Cell viability was determined by measuring ATP levels. […] HeLa-MLKL (1–190) cells were induced by doxycycline (1 μg/ml) for 24 h. Cells were pretreated with indicated compounds for 2 h and subsequently treated with AP20187 (60nM) for 24h. Cell viability was determined by measuring ATP levels. […] (F) MEFs were treated as indicated for 3 h. Cell lysates were harvest and subjected to western-blot analysis for full length and cleaved caspase 3.

hERG = hERG (Homo sapiens, UniProt Q12809); assay: hERG inhibition (standard patch clamp); format: cell-based
Protocol: (§5) Cytochrome P450 (CYP) inhibitory potency was determined by industrial standard methods as reported previously ([Dong et al., 2015]). Methods to determine potassium channel hERG inhibition and in vivo pharmacokinetic parameters have been previously published ([Lu et al., 2017]).

CYP3A4 = CYP3A4 (Homo sapiens, UniProt P08684); assay: Cytochrome P450 inhibition, CYP3A4; format: in vitro ADME
Protocol: as §5

[1] = system: phosphorylation of RIPK1, RIPK3, and MLKL; assay: Western blot of phosphorylation of RIPK1, RIPK3 and MLKL in HT-29 cells upon necroptotic stimuli; format: cell-based, human; conditions: 2 h pretreatment, TNF-α/Smac mimetic/z-VAD 8 h
Protocol: (§6) The cell pellets were harvested and dissolved in lysis buffer (20 mM Tris–HCl, pH 7.4 150 mM NaCl, 1% Triton X-100, 1 mM Na3VO4, 10% glycerol, 25 mM β-glycerol-phosphate, 0.1 mM PMSF, with the Sigma phosphatase inhibitors and the Roche Pierce protease inhibitor set). The re-suspended cell pellet was then incubated on ice for 20 min, followed by centrifugation at 13000 × g for 20 min at 4°C. The supernatants were collected and protein concentrations were measured using the BCA Protein Assay Kit (Thermo Fisher Scientifc, United States). Finally, cell lysates were subjected for western-blot analysis of the indicated antibodies.
(§7) Cell lysates were prepared for immunoprecipitation using an anti-Flag antibody. The levels of RIPK3 and RIPK1 in the immunocomplex were determined by western blot analysis.

RIPK1/RIPK3 complex = target: T2, RIPK1/RIPK3 complex (Homo sapiens, UniProt Q9Y572); assay: RIPK1/RIPK3 necrosome formation in HT-29 cells stably expressing Flag-RIPK3 (immunoprecipitation); format: cell-based; conditions: TNF-α/Smac/z-VAD 8 h
T2 construct: expressed in transfected cells; host or cells: HT-29 (W46), gift of Dr. Xiaodong Wang
Protocol: as §6, §7

human RIPK1 = target: T3, human RIPK1 (Homo sapiens, UniProt Q13546); assay: In vitro kinase activity assay (ADP-Glo), RIPK1; format: biochemical; conditions: at 10 μM; ATP 50 μM, MBP 20 μM
T3 construct: purchased SignalChem
Protocol: as §3, §4

mouse BMDM = assay: LPS/z-VAD-induced expression of inflammatory cytokines in mouse BMDM (Q-PCR); format: cell-based; conditions: 2 h pretreatment, LPS 20 ng/ml plus z-VAD 20 μM, 7 h, mRNA
Protocol: Total RNA was extracted using TRIzol Reagent (Invitrogen) from cell pellets. cDNA was synthesized using a Revert Aid First Strand cDNA kit (Thermo Fisher Scientifc). Real-time PCR was performed using corresponding primers and Power SYBR® Green PCR Master Mix (Invitrogen). The data were normalized to GAPDH. The primer sequences are as follows: ICP6 Forward: […], Reverse: GGT […]; TNFα Forward: […], Reverse: […]; CCL3 Forward: […], Reverse: […]; CXCL1 Forward: GCACCC […], Reverse: […] CAGA; GAPDH Forward: […], Reverse: […].

[2] = In vivo mouse pharmacokinetic study; conditions: male ICR mouse
Protocol: as §5
(§8) (C) Pharmacokinetic parameters of Zharp-99 determined in male ICR mouse.

NIH3T3-RIPK3 cells = assay: RIPK3 dimerization-induced cell death in NIH3T3-RIPK3 cells (AP20187); format: cell-based, mouse; conditions: 2 h pretreatment, AP20187 60 nM 24 h
Source text: (§9) Human colon cancer HT-29 and mouse fibrosarcoma L929 cells were from ATCC. Mouse embryonic fibroblasts (MEF), HT-29 cells stably expressing RIPK3-shRNA and shRNA resistant scramble Flag-tagged RIPK3 (W46), and NIH3T3 cell line stably expressing RIPK3 fused to mutant FK506-binding protein (NIH3T3-RIPK3) were kindly provided by Dr. Xiaodong Wang [National Institute of Biological Sciences (NIBS), Beijing]. HeLa-MLKL (1-190) cell line was a gift from Dr. Zhigao Wang (University of Texas Southwestern Medical Center at Dallas). These cells were cultured in Dulbecco’s modified Eagle’s medium (Hyclone) supplemeted with 10% fetal bovine serum (Invitrogen) and 2 mM L-glutamine (Invitrogen) in a humidified incubator at 37°C and 5% CO2. […]
as §2
(§10) In vitro kinase activity assays using recombinant RIPK3 and RIPK1 were performed as described in the section “Materials and Methods.” Data represent mean value ± standard deviation. […] Cell viability was determined by measuring ATP levels. […] Cell viability was determined by measuring ATP levels. […]

[3] = system: mouse bone marrow derived macrophages; assay: TLR4-mediated necroptosis induced by LPS/z-VAD in mouse bone marrow-derived macrophages; format: cell-based; conditions: mouse BMDM; 2 h pretreatment, LPS 20 ng/ml plus z-VAD for 24 h
Source text: as §9, with “CO2. NIH3T3-RIPK3 was cultured in complete medium containing […] G418 (Calbiochem).” for “CO2.”
as §2
(§11) Cell viability was determined by measuring ATP levels. […] After 5 h, cell viability was determined by measuring ATP levels and ICP6 mRNA expression was detected using viral genome extracted from cell culture supernatant. *P < 0.05. **P < 0.01. ***P < 0.001.

[4] = Metabolic stability in human liver microsomes; format: in vitro ADME
Source text: Encouraged by the in vitro and in vivo efficacy data, we sought to evaluate the preliminary drugability profile of Zharp-99.
as §8

CYP1A2 = CYP1A2 (Homo sapiens, UniProt P05177); assay: Cytochrome P450 inhibition, CYP1A2; format: in vitro ADME
Protocol: as §5

MEFs = assay: Activation of caspase-3 / apoptosis in MEFs (western blot, cell viability); format: cell-based
Protocol: as §4

CYP2D6 = CYP2D6 (Homo sapiens, UniProt P10635); assay: Cytochrome P450 inhibition, CYP2D6; format: in vitro ADME
Protocol: as §5

[5] = Metabolic stability in rat liver microsomes; format: in vitro ADME
[6] = system: rat bone marrow derived macrophages; assay: TLR4-mediated necroptosis induced by LPS/z-VAD in rat bone marrow-derived macrophages; format: cell-based; conditions: rat BMDM; 2 h pretreatment, LPS 20 ng/ml plus z-VAD for 24 h
Source text: as §9, with “CO2. NIH3T3-RIPK3 was cultured in complete medium containing […] G418 (Calbiochem).” for “CO2.”
as §2, §11

L929 cells = assay: HSV-1-induced necroptosis in L929 cells (cell viability); format: cell-based, mouse; conditions: 2 h pretreatment, 24 h after HSV-1 infection
Protocol: as §2, §1

CYP2C19 = CYP2C19 (Homo sapiens, UniProt P33261); assay: Cytochrome P450 inhibition, CYP2C19; format: in vitro ADME
Protocol: as §5

[7] = Metabolic stability in mouse liver microsomes; format: in vitro ADME; conditions: mouse liver microsomes (MLM)
[8] = system: phosphorylation of RIPK1, RIPK3, and MLKL; assay: Western blot of phosphorylation of RIPK1, RIPK3 and MLKL in L929 cells upon necroptotic stimuli; format: cell-based, mouse; conditions: 2 h pretreatment, TNF-α/z-VAD 4 h
Protocol: as §6, §7

HeLa-MLKL (1–190) cells = assay: MLKL polymerization-induced necroptosis in HeLa-MLKL (1-190) cells (AP20187); format: cell-based, human; conditions: doxycycline 1 μg/ml 24 h, 2 h pretreatment, AP20187 60 nM 24 h
Source text: as §9, §2, §10

C57BL/6 mice = assay: TNF-induced systemic inflammatory response syndrome in mice
Protocol: The status of mice was monitored by measuring anal temperature. Mice mortality was continuously monitored till 60 h after TNF-α administration. Blood was collected 4 h post TNF-α challenge and serum was isolated for further examination.
(A,B) The survival rate (A) and body temperature loss (B) were monitored. […] P-values were determined using the ONE-way ANOVA and multi-comparison test for statistics analysis. (C) After 4 h, serum was collected for mouse IL6 level analysis by ELISA. Data are represented as the mean ± standard deviation.

CYP2C9 = CYP2C9 (Homo sapiens, UniProt P11712); assay: Cytochrome P450 inhibition, CYP2C9; format: in vitro ADME
Protocol: as §5

[9] = 5 mg/kg i.p. 15 min before mouse TNF-α 6.5 μg/mouse i.v.

Chain of CYP2C19 (P33261 whole entry): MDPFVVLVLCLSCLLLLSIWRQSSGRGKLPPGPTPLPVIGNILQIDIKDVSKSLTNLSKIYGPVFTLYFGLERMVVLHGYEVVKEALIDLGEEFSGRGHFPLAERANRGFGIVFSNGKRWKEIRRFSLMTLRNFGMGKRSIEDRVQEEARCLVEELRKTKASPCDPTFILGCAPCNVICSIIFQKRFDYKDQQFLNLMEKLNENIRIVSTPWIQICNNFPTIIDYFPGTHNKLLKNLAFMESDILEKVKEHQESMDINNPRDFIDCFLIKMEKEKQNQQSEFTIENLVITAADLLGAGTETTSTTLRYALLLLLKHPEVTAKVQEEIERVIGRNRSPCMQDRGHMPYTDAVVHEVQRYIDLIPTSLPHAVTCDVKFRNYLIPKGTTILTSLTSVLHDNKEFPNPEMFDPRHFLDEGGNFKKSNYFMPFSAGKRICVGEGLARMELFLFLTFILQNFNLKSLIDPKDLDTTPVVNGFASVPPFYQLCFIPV
Chain of CYP1A2 (P05177 whole entry): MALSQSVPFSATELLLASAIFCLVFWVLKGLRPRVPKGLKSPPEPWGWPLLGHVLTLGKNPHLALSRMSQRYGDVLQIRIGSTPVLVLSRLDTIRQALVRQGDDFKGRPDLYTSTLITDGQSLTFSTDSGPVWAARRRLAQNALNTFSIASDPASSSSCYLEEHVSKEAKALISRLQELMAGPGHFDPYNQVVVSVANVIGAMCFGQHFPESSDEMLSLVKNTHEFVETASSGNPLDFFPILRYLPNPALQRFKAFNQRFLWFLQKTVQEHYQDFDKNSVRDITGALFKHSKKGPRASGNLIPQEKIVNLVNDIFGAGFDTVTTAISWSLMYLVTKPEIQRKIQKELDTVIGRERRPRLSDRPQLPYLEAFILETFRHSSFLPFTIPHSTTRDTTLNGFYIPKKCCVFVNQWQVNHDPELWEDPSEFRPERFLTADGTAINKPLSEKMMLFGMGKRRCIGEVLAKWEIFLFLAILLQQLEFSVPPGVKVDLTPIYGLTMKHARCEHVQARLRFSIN
Chain of CYP3A4 (P08684 whole entry): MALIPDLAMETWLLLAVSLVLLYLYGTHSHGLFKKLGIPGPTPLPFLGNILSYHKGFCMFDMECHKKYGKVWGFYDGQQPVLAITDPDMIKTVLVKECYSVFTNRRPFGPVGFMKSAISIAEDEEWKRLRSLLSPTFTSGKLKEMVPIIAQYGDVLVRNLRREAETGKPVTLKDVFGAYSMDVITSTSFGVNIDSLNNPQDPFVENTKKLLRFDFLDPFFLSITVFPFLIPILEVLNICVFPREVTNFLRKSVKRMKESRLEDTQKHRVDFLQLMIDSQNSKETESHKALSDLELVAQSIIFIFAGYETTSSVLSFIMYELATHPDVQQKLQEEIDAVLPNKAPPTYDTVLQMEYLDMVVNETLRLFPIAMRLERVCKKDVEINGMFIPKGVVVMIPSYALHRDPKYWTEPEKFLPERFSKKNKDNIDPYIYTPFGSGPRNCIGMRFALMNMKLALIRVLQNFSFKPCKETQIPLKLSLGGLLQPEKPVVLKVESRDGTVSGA
Chain of CYP2D6 (P10635 whole entry): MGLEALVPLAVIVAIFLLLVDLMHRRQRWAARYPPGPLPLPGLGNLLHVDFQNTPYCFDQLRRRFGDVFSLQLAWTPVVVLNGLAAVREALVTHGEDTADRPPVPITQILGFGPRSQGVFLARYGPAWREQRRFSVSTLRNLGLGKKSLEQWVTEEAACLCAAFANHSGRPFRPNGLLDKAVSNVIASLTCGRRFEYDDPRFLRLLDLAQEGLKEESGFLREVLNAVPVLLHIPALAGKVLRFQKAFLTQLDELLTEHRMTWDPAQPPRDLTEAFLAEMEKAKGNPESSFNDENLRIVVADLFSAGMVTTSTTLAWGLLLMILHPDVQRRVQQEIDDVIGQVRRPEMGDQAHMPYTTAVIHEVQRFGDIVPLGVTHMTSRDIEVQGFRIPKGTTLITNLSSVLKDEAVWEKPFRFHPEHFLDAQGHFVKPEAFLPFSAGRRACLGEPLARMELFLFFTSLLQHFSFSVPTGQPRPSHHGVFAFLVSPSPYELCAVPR
Chain of CYP2C9 (P11712 whole entry): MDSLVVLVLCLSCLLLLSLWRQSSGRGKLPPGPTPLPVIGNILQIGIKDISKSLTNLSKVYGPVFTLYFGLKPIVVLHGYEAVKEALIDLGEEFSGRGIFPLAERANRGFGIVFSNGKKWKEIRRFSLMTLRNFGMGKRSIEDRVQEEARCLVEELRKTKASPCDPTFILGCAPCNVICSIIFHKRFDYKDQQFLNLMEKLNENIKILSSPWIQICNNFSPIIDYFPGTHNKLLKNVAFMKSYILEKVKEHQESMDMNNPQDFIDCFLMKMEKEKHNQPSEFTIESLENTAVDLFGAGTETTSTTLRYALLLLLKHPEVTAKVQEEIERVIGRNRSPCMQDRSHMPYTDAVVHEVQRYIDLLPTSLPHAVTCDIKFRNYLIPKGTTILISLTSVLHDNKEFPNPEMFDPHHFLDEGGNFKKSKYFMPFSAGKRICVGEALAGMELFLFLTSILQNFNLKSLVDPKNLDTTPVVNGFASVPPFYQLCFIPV
Chain of hERG (Q12809 whole entry): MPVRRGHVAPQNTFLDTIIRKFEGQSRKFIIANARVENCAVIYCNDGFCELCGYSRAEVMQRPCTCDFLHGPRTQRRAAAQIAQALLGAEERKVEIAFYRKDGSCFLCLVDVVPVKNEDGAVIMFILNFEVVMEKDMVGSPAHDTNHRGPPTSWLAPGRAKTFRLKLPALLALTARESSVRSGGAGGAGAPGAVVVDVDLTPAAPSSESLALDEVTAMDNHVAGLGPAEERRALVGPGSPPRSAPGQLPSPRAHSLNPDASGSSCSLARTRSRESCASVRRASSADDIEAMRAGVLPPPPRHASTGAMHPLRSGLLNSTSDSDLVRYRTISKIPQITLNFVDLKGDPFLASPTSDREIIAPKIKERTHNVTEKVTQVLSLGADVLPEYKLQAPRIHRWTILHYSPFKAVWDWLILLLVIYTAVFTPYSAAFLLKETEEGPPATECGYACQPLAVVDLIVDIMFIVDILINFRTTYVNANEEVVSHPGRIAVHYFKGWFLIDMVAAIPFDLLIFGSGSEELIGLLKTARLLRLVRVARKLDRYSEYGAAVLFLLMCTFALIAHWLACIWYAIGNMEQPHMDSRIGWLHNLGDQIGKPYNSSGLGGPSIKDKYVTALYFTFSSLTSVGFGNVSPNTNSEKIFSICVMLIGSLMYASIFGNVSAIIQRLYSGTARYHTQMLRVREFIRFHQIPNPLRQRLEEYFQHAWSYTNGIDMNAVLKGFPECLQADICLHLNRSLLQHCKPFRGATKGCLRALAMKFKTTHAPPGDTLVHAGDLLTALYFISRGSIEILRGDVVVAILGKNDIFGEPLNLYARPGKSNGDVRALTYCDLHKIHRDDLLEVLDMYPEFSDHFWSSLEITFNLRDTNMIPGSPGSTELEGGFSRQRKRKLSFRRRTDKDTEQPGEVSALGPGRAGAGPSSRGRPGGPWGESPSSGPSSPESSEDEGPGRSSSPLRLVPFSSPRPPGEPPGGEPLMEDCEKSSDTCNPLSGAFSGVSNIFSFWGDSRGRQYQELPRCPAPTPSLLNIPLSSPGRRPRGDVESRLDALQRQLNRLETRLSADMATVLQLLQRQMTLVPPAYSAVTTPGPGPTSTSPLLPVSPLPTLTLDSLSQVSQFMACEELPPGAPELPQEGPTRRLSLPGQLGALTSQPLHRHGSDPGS
T1 sequence (Q9Y572 whole entry): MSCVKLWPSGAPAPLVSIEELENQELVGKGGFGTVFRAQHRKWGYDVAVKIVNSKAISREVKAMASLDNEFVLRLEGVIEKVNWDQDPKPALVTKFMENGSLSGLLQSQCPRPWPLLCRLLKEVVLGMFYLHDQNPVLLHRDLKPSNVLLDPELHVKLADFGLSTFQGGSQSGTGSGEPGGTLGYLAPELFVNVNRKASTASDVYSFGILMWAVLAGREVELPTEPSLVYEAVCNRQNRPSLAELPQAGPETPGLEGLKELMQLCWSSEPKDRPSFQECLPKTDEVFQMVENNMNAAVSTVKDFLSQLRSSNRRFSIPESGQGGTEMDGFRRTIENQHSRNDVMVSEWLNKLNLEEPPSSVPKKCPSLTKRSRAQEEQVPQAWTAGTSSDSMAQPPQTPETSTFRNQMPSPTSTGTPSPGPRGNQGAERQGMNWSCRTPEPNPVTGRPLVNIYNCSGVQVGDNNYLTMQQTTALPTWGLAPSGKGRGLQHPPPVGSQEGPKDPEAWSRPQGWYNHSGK
T2 sequence (Q9Y572 whole entry): as above
T2 sequence (Q13546 whole entry partner): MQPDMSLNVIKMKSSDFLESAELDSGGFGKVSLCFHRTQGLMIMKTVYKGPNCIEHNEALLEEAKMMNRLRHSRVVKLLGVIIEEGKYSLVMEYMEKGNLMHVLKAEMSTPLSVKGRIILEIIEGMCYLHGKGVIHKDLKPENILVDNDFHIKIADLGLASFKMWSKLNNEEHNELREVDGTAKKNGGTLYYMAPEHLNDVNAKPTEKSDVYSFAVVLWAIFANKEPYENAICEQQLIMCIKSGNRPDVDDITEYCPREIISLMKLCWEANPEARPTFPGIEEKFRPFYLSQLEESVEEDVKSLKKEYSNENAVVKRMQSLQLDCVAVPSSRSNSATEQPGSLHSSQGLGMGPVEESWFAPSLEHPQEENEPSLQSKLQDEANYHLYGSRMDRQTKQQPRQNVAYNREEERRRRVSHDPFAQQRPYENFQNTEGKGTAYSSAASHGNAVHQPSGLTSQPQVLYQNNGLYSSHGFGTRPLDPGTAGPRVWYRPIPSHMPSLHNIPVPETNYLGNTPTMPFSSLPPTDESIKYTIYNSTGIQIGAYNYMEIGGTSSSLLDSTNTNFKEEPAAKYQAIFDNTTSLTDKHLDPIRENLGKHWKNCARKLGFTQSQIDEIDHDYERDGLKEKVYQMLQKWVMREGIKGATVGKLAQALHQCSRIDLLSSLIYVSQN

## O=S1(=O)C=C(C2CC2)c2cc3nccc(Nc4ccc5scnc5c4)c3cc21 [Zharp-99]
HSV-1 ICP6
  effect on expression of viral gene ICP6: did not affect
HT-29 cells
  inhibition of TNF-induced necroptosis: most efficient inhibitor
Human RIPK3
  inhibition of the kinase activity of human RIPK3 in vitro: higher inhibitory activity compared to GSK’872
hERG
  IC50: > 10 µM
CYP3A4; 10 μM
  % of CYP inhibiton CYP3A4: did not inhibit
CYP3A4; human, read-out: % of CYP inhibiton CYP3A4
  inhibition at 10 µM: 5.04%
[1]
  RIPK1 phosphorylation at S166: did not reduce
  phosphorylation of MLKL: abolished
  phosphorylation of RIPK3: abolished
RIPK1/RIPK3 complex
  RIPK1/RIPK3 necrosome formation: did not affect
Human RIPK1
  effect on RIPK1 kinase activity: did not affect
Mouse BMDM
  LPS/z-VAD-induced expression of inflammatory cytokines including TNFα, CCL3, and CXCL1: could inhibit
[2]; 2 mg/kg (iv)
  Cmax: 1390 ng/mL
  half-life: 90 min
[2]; 2 mg/kg (iv), read-out: AUC
  AUC: 990 ng·h/mL
[2]; 2 mg/kg (iv), read-out: CL (clearance)
  clearance: 33 mL/min/kg
[2]; 2 mg/kg (iv), read-out: Vz (volume of distribution)
  Vd: 4.4 L/kg
[2]; 10 mg/kg (po)
  Cmax: 2650 ng/mL
  Tmax: 60 min
  half-life: 72 min
[2]; 10 mg/kg (po), read-out: AUC (exposure)
  AUC: 8220 ng·h/mL
NIH3T3-RIPK3 cells
  RIPK3 dimerization-induced necroptosis: efficiently blocked
[3]
  inhibition of TLR4-mediated necroptosis induced by LPS/z-VAD: potently blocked
[4]
  CLint scaled: 63 mL/min/kg
  Clint: moderate
  half-life: 28 min
CYP1A2; 10 μM
  % of CYP inhibiton 1A2: did not inhibit
CYP1A2; human, read-out: % of CYP inhibiton 1A2
  inhibition at 10 µM: 9.26%
MEFs; MEFs
  induction of apoptosis compared to GSK’872: more potent
MEFs; especially in mouse cells, MEFs treated 3 h (western blot)
  activation of caspase-3 and cell death: induced activation of caspase-3 and cell death in a dose-dependent manner
CYP2D6; 10 μM
  % of CYP inhibiton 2D6: did not inhibit
CYP2D6; human, read-out: % of CYP inhibiton 2D6
  inhibition at 10 µM: -0.44%
[5]; rat liver microsomes
  CLint scaled: 67 mL/min/kg
  Clint: moderate
[5]; rat liver microsomes (RLM)
  half-life: 37 min
[6]
  inhibition of TLR4-mediated necroptosis induced by LPS/z-VAD: potently blocked
L929 cells
  inhibition of HSV-1 induced necroptosis: significantly inhibited
CYP2C19; 10 μM
  % of CYP inhibiton 2C19: did not inhibit
CYP2C19; human, read-out: % of CYP inhibiton 2C19
  inhibition at 10 µM: 4.15%
[7]
  half-life: 26 min
[8]
  phosphorylation of MLKL: blocked
  phosphorylation of RIPK3: blocked
HeLa-MLKL (1–190) cells
  polymerized MLKL-induced necroptosis: did not affect
C57BL/6 mice; [9]
  TNFα-induced temperature loss: ameliorated
  protection against TNFα-induced lethal shock (survival): significantly protected
C57BL/6 mice; 5 mg/kg i.p., serum 4 h post TNF-α, ELISA
  TNFα-induced production of IL-6 in the serum: reduced
CYP2C9; 10 μM
  % of CYP inhibiton 2C9: did not inhibit
CYP2C9; human, read-out: % of CYP inhibiton 2C9
  inhibition at 10 µM: -5.59%
